According to patent US7261901B2, “Vaccine and compositions for the prevention and treatment of neisserial infections” (University of Iowa Research Foundation, priority 2001, dated 2007):

What was measured:
primary cervical cells = test: Association and invasion assays, primary cervical cells (cell type not specified); format: cell-based, human; conditions: for intracellular survival of PLD mutant gonococci: 100 μM pervanadate or 200 nM PMA
Procedure: The anti-PLD antibody was screened for specificity to PLD using assays well-known to the art.
(§1) 8. N. gonorrhoeae Attachment to and Invasion of Primary, Human, Cervical Cells. Primary cervical cell monolayers were infected with wild-type or PLD mutant gonococci as outlined above. Variable concentrations of Streptomyces spp. PLD (SsPLD) (Sigma), PMA, or 4-α phorbol were included in association (adherence and invasion) or invasion assays, as noted. Cervical cells were preincubated (30 minutes, 37° C.) with 200 nM PMA or 4-α phorbol before the addition of gonococci. 10 units ml^−1 SsPLD was added simultaneously with gonococci. Alternatively, where noted, cervical cell monolayers were pre-incubated (30 minutes, 37° C.) with pervanadate, which was made by mixing 100 μM ortho-sodium vanadate in 3 mM hydrogen peroxide. In separate assays, infection supernatants were collected from wild-type or PLD mutant-infected cervical cell monolayers, gonococci were removed by filtration through a 0.22 μm syringe filter (i.e., wild-type or mutant primed supernatants) and were added to association and/or invasion assays, as noted. The ability of gonococci to adhere to and/or invade pex and pen cells was quantitatively determined using standard gentimicin-resistance assays, performed as described previously (Edwards et al., 2000), and in which chemical or protein additives were included or excluded from the invasion assay as described above. The total association (i.e., adherence and invasion) of gonococci with pex and pen cells was quantitated by the omission of gentimicin from the above described invasion assay. Percent invasion of N. gonorrhoeae 1291 or 1291ΔPLDin the presence or absence of experimental additives was determined as a function of the original inoculum and the number of colonies formed with subsequent plating of the cellular lysate. A Kruskal-Wallis non-parametric analysis of variance was used to determine the statistical significance of the association and invasion assays described above.

CR3 = CR3 surface expression on primary cervical cells (ELISA with H5A4); format: cell-based, human; conditions: for CR3 recruitment to the cervical cell surface: PLD mutant infected cells, 100 μM pervanadate or 200 nM PMA; for CR3 surface level expression: uninfected cervical cells
Procedure: As described hereinbelow, primary cervical cells were seeded in 96-well microtiter plates to comparatively quantitate surface level expression of CR3. In the procedure, cells were (i) uninfected; (ii) challenged with wild-type gonococci; (iii) challenged with PLD-mutant gonococci; and/or (iv) challenged with filtered, primed (see infra) wild-type or PLD-mutant gonococcal supernatants. After removal of the infection supernatant, cell monolayers were rinsed, fixed and subsequently labeled with an antibody (anti-CD11b antibody H5A4; Hildreth and August, 1985) specific for the CR3 I-domain subunit followed by an HRP antibody-conjugate (commercially available from Kirkegaard & Perry Laboratories, Gaithersburg, Md.) using standard ELISA protocols. Absorbance of the o-phenylenediamine dihydrochloride peroxidase substrate was determined spectrophotometrically at 490 nm (FIG. 15).
7. Determination of CR3 Surface Expression on Primary Cervical Cells. Pex and pen cells were passed to 96-well microtiter plates and allowed to grow to confluence. Cervical cells were then challenged with wild-type or PLD mutant gonococci after which the infection medium was removed and cells were rinsed thrice with PBS. Cells were fixed with 2% paraformaldehyde. Prior to immuno-analysis of CR3 surface level expression, cells were again rinsed with PBS. Immunoassays were then performed according to standard ELISA protocols using the H5A4 anti-CD11b (i.e., CR3) primary and peroxidase-conjugated secondary antibodies. Absorbance of the o-phenylenediamine dihydrochloride peroxidase substrate was determined spectrophotometrically at 490 nm. Primary antibody was omitted from one well, and the secondary antibody was omitted from a second well, which served as a control for endogenous peroxidase activity. Where indicated 200 nM phorbol myristate (PMA), 200 nM 4-α phorbol, 100 μM pervanadate, 3 mM hydrogen peroxide, or gonococci-depleted supernatants collected from wild-type or PLD mutant infection studies were included in the infection studies as outlined below.
Determination of CR3 Surface Expression on Primary Cervical Cells. Pex and pen cells were passed to 96-well microtiter plates and allowed to grow to confluence. Cervical cells were then challenged with wild-type or PLD mutant gonococci after which the infection medium was removed and cells were rinsed thrice with PBS. Cells were fixed with 2% paraformaldehyde. Prior to immuno-analysis of CR3 surface level expression, cells were again rinsed with PBS. Immunoassays were then performed according to standard ELISA protocols using the H5A4 anti-CD11b (i.e., CR3) primary and peroxidase-conjugated secondary antibodies. Absorbance of the o-phenylenediamine dihydrochloride peroxidase substrate was determined spectrophotometrically at 495 nm. […]

Ectocervical Cells = test: Association and invasion (gentimicin-resistance) assays, primary ectocervical (pex) cells; format: cell-based, human
Procedure: as §1
N. gonorrhoeae Attachment to and Invasion of Primary, Human, Cervical Cells. Primary cervical cell monolayers were infected with wild-type or PLD mutant gonococci as outlined above. Variable concentrations of PtC (Sigma), ethanol, 2-butanol, or Streptomyces spp. PLD (SsPLD) (Sigma) were included in association (adherence and invasion) or invasion assays, as noted. PtC, ethanol, 2-butanol, or 10 units ml^−1 SsPLD were added simultaneously with gonococci. In separate assays, infection supernatants were collected from wild-type or PLD mutant-infected cervical cell monolayers, gonococci were removed by filtration through a 0.22 μm syringe filter (to yield primed wild-type or mutant supernatants), which were then added to association and/or invasion assays, as noted. The ability of gonococci to adhere to and/or invade pex and pen cells was quantitatively determined using standard gentimicin-resistance assays, performed as described previously (Edwards et al., 2000) and in which chemical or protein additives were included or excluded from the invasion assay as described above. The total association (i.e., adherence and invasion) of gonococci with pex and pen cells was quantitated by the omission of gentimicin from the above described invasion assay. Percent invasion of N. gonorrhoeae 1291 or 1291ΔPLD in the presence or absence of experimental additives was determined as a function of the original inoculum and the number of colonies formed with subsequent plating of the cellular lysate. Inhibition of gonococcal attachment and/or invasion by exogenous PtC, ethanol, or 2-butanol was determined as a normalized function of the ability of gonococci to attach to and/or invade primary cervical cells in the absence of the competimer inhibitor. A Kruskal-Wallis non-parametric analysis of variance was used to determine the statistical significance of the association and invasion assays described above.

gonococci = conditions: 1.0, 0.1, or 0.01 percent alcohol, absence of cervical cells (data not shown)
Procedure: Consequently, it was determined if exogenously added PLD substrates could compete with cervical cell constituents for NgPLD activity and in doing so interfere with the role of NgPLD in gonococcal invasion.

Endocervical Cells = test: Association and invasion (gentimicin-resistance) assays, primary endocervical (pen) cells; format: cell-based, human; conditions: 1291 + 100 nM DPG
Procedure: as §1, with “Alternatively, where noted, cervical cell monolayers were pre-incubated (30 minutes, 37° C.) with pervanadate, which was made by mixing 100 μM ortho-sodium vanadate in 3 mM hydrogen peroxide. In separate assays, infection supernatants were collected from wild-type or PLD mutant-infected cervical cell monolayers, gonococci were removed by filtration through a 0.22 μm syringe filter (i.e., wild-type or mutant primed supernatants) and were added to association and/or invasion assays, as noted.” left out, “A Kruskal-Wallis non-parametric analysis of variance was used to determine the statistical significance of the association and invasion assays described above.” left out

PLD = PLD activity (Amplex Red Phospholipase D Assay Kit) in gonococci, infected cervical cell lysates, fractions and supernatants; format: biochemical, N. gonorrhoeae
Procedure: (§2) 4. Determination of PLD Activity. PLD activity was accessed using the Amplex™ Red Phospholipase D Assay Kit (Molecular Probes, Eugene Oreg.). Wild-type and PLD mutant gonococci were suspended in PLD assay buffer to a final concentration of 10^7 bacteria ml^−1, and activity was determined according to the manufacturer's protocol. Assessment of PLD activity at acidic pH was determined in a two-step assay according to the manufacturer's protocol. For the first step, 10^8 gonococci were suspended in PBS with the pH adjusted to 3.0, 4.5, or 6.0. Gonococcal suspensions were diluted 10-fold in PLD assay buffer for the second step of the reaction. Cervical cell fractions were prepared as outlined below and PLD activity was assessed at neutral pH according to the manufacturer's protocol.
5. Fractionation of Primary Cervical Cells. Uninfected (control) and infected cervical cell monolayers were lysed in buffer A (50 mM tris, pH 7.5; 10 mM NaCl, 1 mM KCl; 2 mM MgCl2, 1 mM PMSF) by scraping cervical cells from tissue culture dishes placed on ice. The cell lysate was sonicated (two bursts of 20 seconds each). Cell debris and the nuclear fraction was removed by centrifugation (750×g, 10 minutes), and the supernatant from this spin was then subjected to filtration through a low-protein binding 0.22 μm syringe filter to ensure removal of gonococci. Alternatively, gonococci were removed by immunoprecipitation (as described by Wen et al., 2000) using the monoclonal antibody, 2C3, which recognizes the H.8 outer membrane protein of the pathogenic Neisseria. Sucrose was added to the resulting gonococcus-depleted supernatant (S1) to a final concentration of 300 mM. Ultracentrifugation (150,000×g, 90 minutes) was then performed to produce the plasma membrane-(pellet) and cytosol (supernatant 2, S2)-enriched fractions. The membrane-enriched fraction was resuspended in PLD assay buffer (50 mM Tris, 5 mM CaCl2, pH 8.0). S2 was concentrated by filtration through Centricon YM-30 centrifugal filter units (Millipore) after which cytosolic constituents were recovered in PLD assay buffer. Where indicated, prior to infection studies primary pex and pen cell monolayers were treated with 300 nM wortmannin (Sigma) (2 hours, 37° C.) or 1 μM cytochalasin D (Sigma) (30 minutes, 37° C.) to inhibit macropinocytosis of gonococci. Wortmannin and cytochalasin D were maintained in cervical cell cultures during the course of infection.
as §2, with “Determination of” for “4. Determination of”, “Assessment of gonococcal PLD activity” for “Assessment of PLD activity”
Fractionation of Primary Cervical Cells. Uninfected (control) and infected cervical cell monolayers were lysed in buffer A (50 mM tris, pH 7.5; 10 mM NaCl, 1 mM KCl; 2 mM MgCl2, 1 mM PMSF) by scraping cervical cells from tissue culture dishes placed on ice. The cell lysate was sonicated (two bursts of 20 seconds each). […] Sucrose was added to the resulting gonococcus-depleted supernatant (S1) to a final concentration of 300 mM. Ultracentrifugation (150,000×g, 90 minutes) was then performed to produce the plasma membrane-(pellet) and cytosol (supernatant 2, S2)-enriched fractions. The membrane-enriched fraction was resuspended in PLD assay buffer (50 mM Tris, 5 mM CaCl2, pH 8.0). […]

[1] = 1291 WT, alcohol competimer 0.01 %
[2] = 1291 WT, alcohol competimer 0.1 %
[3] = 1291 WT, alcohol competimer 1.0 %
[4] = Ectocervical Cells, 1291 + 100 nM DPG

Compound: CCCCCCCCCCCCCC(=O)O[C@@H]1[C@@H](C)[C@@]2(O)[C@@H](C=C(CO)C[C@]3(O)C(=O)C(C)=C[C@@H]23)[C@@H]2C(C)(C)[C@]12OC(C)=O [PMA, phorbol myristate]
- intracellular survival of PLD mutant gonococci (primary cervical cells): partially restored intracellular survival
- CR3 recruitment to the cervical cell surface (CR3): rescued CR3 recruitment
- CR3 surface level expression (CR3): increased CR3 surface level expression

Compound: CCO [Ethanol, ethanol]
- Inhibition (%) (Ectocervical Cells; [1]): 74.9582 (0.87) %
- Invasion (%) (Ectocervical Cells; [1]): 0.6957 (0.02) %
- Inhibition (%) (Ectocervical Cells; [2]): 80.9243 (1.41) %
- Invasion (%) (Ectocervical Cells; [2]): 0.5288 (0.01) %
- Invasion (%) (Ectocervical Cells; [3]): 0.2564 (0.01) %
- Inhibition (%) (Ectocervical Cells; 1291 WT, alcohol competimer 1.0 %, variance in parentheses): 90.7346 (0.92) %
- survival of gonococci (gonococci): no significant difference in survival

Compound: O=C(O)C(COP(=O)(O)O)OP(=O)(O)O (stereo not drawn) [DPG, 2,3-diphosphoglycerate]
- effect on PLD activity, association and invasion of cervical cells by gonococci (primary cervical cells): inhibits gonococcal association and invasion
- Association, Mean (Ectocervical Cells; [4]): 15.31
- Invasion, Mean (Ectocervical Cells; [4]): 0.36
- Association, Mean (Endocervical Cells): 6.97
- Invasion, Mean (Endocervical Cells): 0.21

Compound: CCC(C)O (stereo not drawn) [2-Butanol, 2-butanol]
- Invasion (%) (Ectocervical Cells; [1]): 2.8661 (0.53) %
- Invasion (%) (Ectocervical Cells; [2]): 2.7087 (0.47) %
- Invasion (%) (Ectocervical Cells; [3]): 2.6869 (0.47) %
- Invasion (%) (Ectocervical Cells; 1291ΔPLD, alcohol competimer 0.01 %): 0.2819 (0.02) %
- Invasion (%) (Ectocervical Cells; 1291ΔPLD, alcohol competimer 0.1 %): 0.3172 (0.03) %
- Invasion (%) (Ectocervical Cells; 1291ΔPLD, alcohol competimer 1.0 %): 0.2960 (0.05) %
- survival of gonococci (gonococci): no significant difference in survival

Compound: OO [H2O2, hydrogen peroxide]
- PLD activity (Table 3, untitled) (PLD; No cervical cells): 0.961
- Mean PLD activity, No Cells (PLD; gonococci alone and assay control (Table 7B, C)): 0.885
- PLD activity, Assay Controls (Table 4C) (PLD; positive control): 0.781
- PLD activity, Assay Controls, mean (PLD; positive control (Table 8A)): 1.557
- effect on gonococcal association, invasion or CR3 cell surface recruitment (primary cervical cells; negative controls: 200 nM 4-α phorbol, 3 mM hydrogen peroxide): No effect was observed

Compound: pervanadate
- intracellular survival of PLD mutant gonococci (primary cervical cells): not sufficient to allow the intracellular survival
- CR3 recruitment to the cervical cell surface (CR3): rescues CR3 recruitment
- CR3 surface level expression (CR3): does not stimulate CR3 surface recruitment
